Measured values taken from US11571426B2, “Compositions for preventing or treating lupus” (CHONG KUN DANG PHARMACEUTICAL CORP., priority 2017, dated 2023).
Marks after values point to notes of the source that are not given here.

What was measured:
NZB/W F1 female mice [1] = assay: Proteinuria and UP/C in SLE model mouse; type: in vivo; conditions: for incidence rate of severe proteinuria of 300 mg/dl or more: 42 weeks old
Protocol: (§1) 80 NZB/W F1 female mice (four weeks old) were purchased from Jackson Laboratory and maintained in an SPF breeding room with five mice per cage. Their weight and urine protein were measured at 24 weeks after birth (right before administration), and then all the animals except those having too much urine protein were divided into groups as shown in a table 2 below such that the urine protein and weight might be evenly distributed among the groups.
(§2) Then, the mice were administered as described in the table 2 once a day for about 19 weeks from 24 weeks after birth to 42 weeks after birth.
The fresh urine of mice was collected before and after administration every two weeks, while blood collection was performed before and after administration every four weeks. The serum was prepared by centrifugation of the collected blood and then kept at −70° C.
A urine creatinine concentration was obtained by diluting the urine 100-fold, then measuring the concentration thereof by means of a serum chemistry analyzer (Dri-CHEM 3000 colorimetric analyzer, Fujifilm), and then calibrating the measured value using a dilution factor.

NZB/W F1 female mice [2] = assay: T cell populations in spleen (FACS) in SLE disease mouse; type: in vivo
NZB/W F1 female mice [3] = assay: Survival rate in SLE model mouse; type: in vivo; conditions: for survival rate: 42 weeks after birth
Protocol: as §1, §2
An NZB/W F1 female mouse is used as a human SLE disease model. If not treated at all, it is known that this model falls dead all after 12 months or so (about 52 weeks old) due to immune-complex glomerulonephritis.

NZB/W F1 female mice [4] = assay: Serum chemistry after long-term administration; type: in vivo, mouse; conditions: serum at autopsy
Protocol: as §1, §2
Data obtained from groups were compared using a Kruskal-Wallis (†p<0.05), *p<0.05 versus C group (Mann-Whitney U-test), ALT: alanine aminotransferase, AST: aspartate aminotransferase, ALP: alkaline phosphatase, TBIL: total bilirubin, TCHOL: total cholesterol, TG: triglyceride, TP: total protein, CPK: creatine phosphokinase)

NZB/W F1 female mice [5] = assay: Renal histopathological evaluation in SLE model mouse; type: in vivo
Protocol: as §1, §2
To identify an effect of the inventive pharmaceutical composition on kidney in the SLE disease model, a histopathological evaluation was performed.
First of all, a half of a left kidney of a mouse collected during the autopsy was fixed with 10% neutral buffered formalin and prepared as a paraffin block. Then, a histopathological evaluation was performed by means of hematoxylin and eosin staining (H&E, BBC Biochemical, Mount Vernon, Wash., USA), periodic acid-schiff staining (PAS, BBC Biochemical) and Masson's trichrome staining (BBC Biochemical).

NZB/W F1 female mice [6] = assay: T cell populations in spleen (FACS) in SLE disease mouse; type: in vivo; remark: listed apart in the source
Protocol: as §1, §2
To evaluate a pattern of immune T cell populations in spleen in the SLE disease mouse, a ratio of CD3, CD4, CD8a and CTLA4 expressions as well as a Treg proportion/Th1, Th2, Th17 and Treg master regulator (T-bet, GATA-3, ROR-γt, Foxp3) expression patterns were measured.
To that end, splenocytes were first obtained from the spleen obtained during the mouse autopsy by means of a 70 μm cell strainer (BD), and then red blood cells were hemolyzed by means of an EL buffer and washed with FACS buffer solution (5% BSA/PBS). After that, staining was performed at a concentration recommended by a manufacturer by means of PerCP-cy5.5-conjugated anti-mouse CD3 (ebioscience, Sandiego, Calif., USA), PE-Cyanine7-conjugated anti-mouse CD8a (ebioscience), FITC-conjugated anti-CD4 (BD), APC-conjugated anti-mouse CD25 (BD), PE-conjugated anti-mouse FoxP3 (BD), PE-conjugated anti-mouse RORγt (ebioscience), PE-conjugated anti-mouse T-bet (ebioscience), PE-conjugated anti-mouse GATA-3 (ebioscience), and PE-conjugated anti-mouse CTLA4 (ebioscience) antibodies.
The splenocytes and cell surface marker antibodies were immediately reacted. Before reacting FoxP3, RORγt, T-bet and GATA3 antibodies, the splenocytes were fixed by means of a FoxP3/Transcription Factor staining buffer set, then permeabilized, and then reacted with the antibodies. A ratio of CD4:CD8 in CD3 cells as well as a ratio of CD4+CD8-cells, CD4−CD8+ cells, CD4+CD8+ cells and double negative T cells were respectively measured and compared between the groups. To identify a ratio of FoxP3, RORγt, T-bet and GATA3, which were master regulators of Treg, Th17, Th1 and Th2, a ratio of CD4+CD25+FoxP3+ cells, CD4+CD25+RORγt+ cells, CD4+CD25+ T-bet+ cells and CD4+CD25+GATA3+ cells was respectively measured.

[7] = 50 mg/kg dosed group vs control group
[8] = spleen, CD3+ gated, experimental groups

SMILES: O=C(NO)c1ccc(CN(C(=O)N2CCOCC2)c2cccc(C(F)(F)F)c2)cc1 [Compound 374, N-(4-(hydroxycarbamoyl)benzyl)-N-(3-(trifluoromethyl)phenyl)morpholine-4-carboxamide]
- incidence rate of severe proteinuria of 300 mg/dl or more (NZB/W F1 female mice [1]; 10 mg/kg dosed group): 60%
- incidence rate of severe proteinuria of 300 mg/dl or more (NZB/W F1 female mice [1]; 30 mg/kg dosed group): 6.7%
- incidence rate of severe proteinuria of 300 mg/dl or more (NZB/W F1 female mice [1]; 50 mg/kg dosed group): 0%
- UP/C (ratio of urine protein:creatine) (NZB/W F1 female mice [1]; 36-week old, all the experimental groups): remarkably decreased
- UP/C value (NZB/W F1 female mice [1]; 42-week old, all experimental groups except the 10 mg/kg dosed group, vs negative control): decreased more
- incidence rate of severe proteinuria (NZB/W F1 female mice [1]; experimental groups, 24 to 42 week after birth): remarkably improved
- decrease of ratio of CD138+ cells (NZB/W F1 female mice [2]; 10 mg/kg dosed group, vs negative control): 21.2%
- decrease of ratio of CD138+ cells (NZB/W F1 female mice [2]; 30 mg/kg dosed group, vs negative control): 25.2%
- decrease of ratio of CD138+ cells (NZB/W F1 female mice [2]; 50 mg/kg dosed group vs negative control): 31.6%
- survival rate (NZB/W F1 female mice [3]; 10 mg/kg dosed group): about 73.3%
- survival rate (NZB/W F1 female mice [3]; 30 mg/kg dosed group): about 93.3%
- survival rate (NZB/W F1 female mice [3]; 50 mg/kg dosed group): about 93.3%
- survival rate pattern (NZB/W F1 female mice [3]; experimental groups (10, 30, 50 mg/kg), vs negative control): better recovery pattern
- ALP (NZB/W F1 female mice [4]; group D, 10 mg/kg/day i.p.): 187.44 ± 20.75 U/I
- ALT (NZB/W F1 female mice [4]; group D, 10 mg/kg/day i.p.): 18.10 ± 1.72 U/I
- AST (NZB/W F1 female mice [4]; group D, 10 mg/kg/day i.p.): 44.20 ± 3.19 U/I
- Albumin (NZB/W F1 female mice [4]; group D, 10 mg/kg/day i.p.): 1.91 ± 0.14 g/dL
- CPK (NZB/W F1 female mice [4]; group D, 10 mg/kg/day i.p.): 86.70 ± 17.99 U/I
- Ca (NZB/W F1 female mice [4]; group D, 10 mg/kg/day i.p.): 10.08 ± 0.40 mg/dL
- Glucose (NZB/W F1 female mice [4]; group D, 10 mg/kg/day i.p.): 162.56 ± 9.36 mg/dL
- TBIL (NZB/W F1 female mice [4]; group D, 10 mg/kg/day i.p.): 0.22 ± 0.03 mg/dL
- TCHOL (NZB/W F1 female mice [4]; group D, 10 mg/kg/day i.p.): 193.60 ± 34.55 mg/dL
- TG (NZB/W F1 female mice [4]; group D, 10 mg/kg/day i.p.): 241.00 ± 35.25 mg/dL
- TP (NZB/W F1 female mice [4]; group D, 10 mg/kg/day i.p.): 4.74 ± 0.20 g/dL
- ALP (NZB/W F1 female mice [4]; group E, 30 mg/kg/day i.p.): 155.92 ± 5.53* U/I
- ALT (NZB/W F1 female mice [4]; group E, 30 mg/kg/day i.p.): 20.79 ± 0.78* U/I
- AST (NZB/W F1 female mice [4]; group E, 30 mg/kg/day i.p.): 55.21 ± 5.17* U/I
- Albumin (NZB/W F1 female mice [4]; group E, 30 mg/kg/day i.p.): 2.19 ± 0.11 g/dL
- CPK (NZB/W F1 female mice [4]; group E, 30 mg/kg/day i.p.): 84.71 ± 8.39 U/I
- Ca (NZB/W F1 female mice [4]; group E, 30 mg/kg/day i.p.): 9.65 ± 0.19 mg/dL
- Glucose (NZB/W F1 female mice [4]; group E, 30 mg/kg/day i.p.): 191.29 ± 7.33* mg/dl
- TBIL (NZB/W F1 female mice [4]; group E, 30 mg/kg/day i.p.): 0.26 ± 0.03 mg/dL
- TCHOL (NZB/W F1 female mice [4]; group E, 30 mg/kg/day i.p.): 140.07 ± 14.48 mg/dL
- TG (NZB/W F1 female mice [4]; group E, 30 mg/kg/day i.p.): 240.86 ± 56.19* mg/dl
- TP (NZB/W F1 female mice [4]; group E, 30 mg/kg/day i.p.): 5.21 ± 0.19 g/dL
- ALP (NZB/W F1 female mice [4]; group F, 50 mg/kg/day i.p.): 153.08 ± 4.78 U/I
- ALT (NZB/W F1 female mice [4]; group F, 50 mg/kg/day i.p.): 29.07 ± 3.26* U/I
- AST (NZB/W F1 female mice [4]; group F, 50 mg/kg/day i.p.): 59.00 ± 15.00 U/I
- Albumin (NZB/W F1 female mice [4]; group F, 50 mg/kg/day i.p.): 2.26 ± 0.09* g/dl
- CPK (NZB/W F1 female mice [4]; group F, 50 mg/kg/day i.p.): 125.86 ± 47.35 U/I
- Ca (NZB/W F1 female mice [4]; group F, 50 mg/kg/day i.p.): 9.43 ± 0.16 mg/dL
- Glucose (NZB/W F1 female mice [4]; group F, 50 mg/kg/day i.p.): 200.23 ± 3.91* mg/dl
- TBIL (NZB/W F1 female mice [4]; group F, 50 mg/kg/day i.p.): 0.28 ± 0.04 mg/dL
- TCHOL (NZB/W F1 female mice [4]; group F, 50 mg/kg/day i.p.): 129.57 ± 8.98 mg/dL
- TG (NZB/W F1 female mice [4]; group F, 50 mg/kg/day i.p.): 183.29 ± 15.00 mg/dL
- TP (NZB/W F1 female mice [4]; group F, 50 mg/kg/day i.p.): 5.35 ± 0.16* g/dl
- infiltration of inflammatory cells in kidney (marks 0-4) (NZB/W F1 female mice [5]; 30 and 50 mg/kg dosed groups): remarkably excellent effect of reducing the infiltration of inflammatory cells
- degree of infiltration of inflammatory cells in kidney (marks 0-4) (NZB/W F1 female mice [5]; experimental groups): decreased
- ratio of CD4+T-bet+/CD4+GATA-3+ (NZB/W F1 female mice [6]; 30 mg/kg and 50 mg/kg dosed groups vs control group): more significantly decreased
- T-bet expression in CD4+ cells (NZB/W F1 female mice [6]; [7]): significantly lower
- ratio of CD4+CD25+ cells/CD4+ cells (NZB/W F1 female mice [6]; [7]): significantly lower
- ratio of CD25+ cells (NZB/W F1 female mice [6]; [7]): significantly lower
- ratio of CD4−CD8+ T cells (NZB/W F1 female mice [6]; [8]): increased
- ratio of CD4−CD8− T cells (NZB/W F1 female mice [6]; [8]): decreased
- ratio of CD4+CD25+Foxp3+, CD4+CD25+RORγt+, CD4+CD25+ T-bet+ and CD4+CD25+GATA-3+ cells (NZB/W F1 female mice [6]; spleen, between the groups): a significance between the groups was not observed yet
- ratio of CD4+CD8−: CD4−CD8+ T cells (NZB/W F1 female mice [6]; spleen, experimental groups): tended to decrease as an administered dose was increased
